From PubChem BioAssay (NCI)
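Step 1: Grow cells in 96-well plates. Step 2: Expose to compound for 48 hours at 5 concentrations. Step 3: Interpolate endpoints linearly; if unreached, use highest concentration. TGI marks complete inhibition of growth.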 Peptide text beside a SMILES is read from it. * marks the point of attachment. Boc = CC(C)(C)OC(=O)*

Columns and labels:
Experiment in all cases: growth of human tumour cells (NCI), 48 h
SF-539 CNS = system: SF-539 CNS
SR leukemia = system: SR leukemia
MALME-3M melanoma = system: MALME-3M melanoma
HCT-116 colon = system: HCT-116 colon
SNB-75 CNS = system: SNB-75 CNS
SW-620 colon = system: SW-620 colon
NCI-H522 lung = system: NCI-H522 lung
UO-31 renal = system: UO-31 renal
A549 NSCLC = system: A549 NSCLC
MDA-MB-231 breast = system: MDA-MB-231 breast

CCN(CC)c1ccc(C(=C2C=CC(=[N+](CC)CC)C=C2)c2ccccc2)cc1
TGI (SF-539 CNS): 0.269 µM
TGI (SR leukemia): 0.0791 µM
TGI (MALME-3M melanoma): 0.0902 µM
TGI (HCT-116 colon): 0.127 µM
TGI (SNB-75 CNS): 1.25 µM
TGI (SW-620 colon): 0.138 µM
TGI (NCI-H522 lung): 0.143 µM
TGI (UO-31 renal): 0.185 µM

COc1ccc([C@@]23CCC(=O)C[C@@H]2N(C)CC3)cc1OC
TGI (SF-539 CNS): > 100 µM
TGI (SR leukemia): > 100 µM
TGI (A549 NSCLC): > 100 µM
TGI (MALME-3M melanoma): > 100 µM
TGI (MDA-MB-231 breast): > 100 µM
TGI (SNB-75 CNS): > 100 µM
TGI (SW-620 colon): > 100 µM
TGI (NCI-H522 lung): > 100 µM
TGI (UO-31 renal): > 100 µM

Cc1cc(S(=O)(=O)NC(=NCC(=O)NN)NN)c(S)cc1Cl
TGI (SF-539 CNS): > 10 µM
TGI (SR leukemia): > 10 µM
TGI (A549 NSCLC): > 10 µM
TGI (MALME-3M melanoma): > 10 µM
TGI (MDA-MB-231 breast): > 10 µM
TGI (HCT-116 colon): > 10 µM
TGI (SNB-75 CNS): > 10 µM
TGI (SW-620 colon): > 10 µM
TGI (NCI-H522 lung): > 10 µM

COC1(OC)N=C(N)C2(C#N)/C(=N/N(C)C)CC(C)C12C#N (stereo not drawn)
TGI (SF-539 CNS): > 100 µM
TGI (SR leukemia): > 100 µM
TGI (A549 NSCLC): > 100 µM
TGI (MALME-3M melanoma): > 100 µM
TGI (MDA-MB-231 breast): > 100 µM
TGI (HCT-116 colon): > 100 µM
TGI (SNB-75 CNS): > 100 µM
TGI (SW-620 colon): > 100 µM
TGI (NCI-H522 lung): > 100 µM
TGI (UO-31 renal): > 100 µM

CSCCC(NC(=O)C(CC(C)C)NC(=O)CNC(=O)OC(C)(C)C)C(=O)N(C)C (stereo not drawn) (Boc-Gly-Leu-Met-NMe2; configuration not given here)
TGI (SF-539 CNS): > 100 µM
TGI (SR leukemia): > 100 µM
TGI (A549 NSCLC): > 100 µM
TGI (MALME-3M melanoma): > 100 µM
TGI (MDA-MB-231 breast): > 100 µM
TGI (HCT-116 colon): > 100 µM
TGI (SW-620 colon): > 100 µM
TGI (NCI-H522 lung): > 100 µM
TGI (UO-31 renal): > 100 µM

CC(=O)Nc1ncc2c(n1)-c1ccccc1OC2
TGI (SF-539 CNS): > 100 µM
TGI (SR leukemia): > 100 µM
TGI (A549 NSCLC): > 100 µM
TGI (MDA-MB-231 breast): > 100 µM
TGI (HCT-116 colon): > 100 µM
TGI (SNB-75 CNS): > 100 µM
TGI (SW-620 colon): > 100 µM
TGI (NCI-H522 lung): > 100 µM
TGI (UO-31 renal): > 100 µM

COC(=O)C1(Cc2ccccc2)Cc2ccccc2C1=O (stereo not drawn)
TGI (SF-539 CNS): > 100 µM
TGI (SR leukemia): 78.3 µM
TGI (A549 NSCLC): > 100 µM
TGI (MALME-3M melanoma): 39.3 µM
TGI (MDA-MB-231 breast): > 100 µM
TGI (HCT-116 colon): > 100 µM
TGI (SNB-75 CNS): > 100 µM
TGI (SW-620 colon): > 100 µM
TGI (UO-31 renal): > 100 µM

COc1ccc(-c2c(C(C)=O)c(C)n(C3OC(CO)C(O)C(O)C3O)c(=S)c2C#N)cc1 (stereo not drawn)
TGI (SF-539 CNS): > 100 µM
TGI (SR leukemia): > 100 µM
TGI (A549 NSCLC): > 100 µM
TGI (MALME-3M melanoma): > 100 µM
TGI (MDA-MB-231 breast): > 100 µM
TGI (HCT-116 colon): > 100 µM
TGI (SNB-75 CNS): > 100 µM
TGI (SW-620 colon): > 100 µM
TGI (UO-31 renal): > 100 µM

O=C(O)c1ccc(Nc2cnc3ccc(C(F)(F)F)cc3n2)cc1
TGI (SF-539 CNS): 58.2 µM
TGI (SR leukemia): 43.8 µM
TGI (A549 NSCLC): 30.8 µM
TGI (MALME-3M melanoma): > 100 µM
TGI (MDA-MB-231 breast): 36.9 µM
TGI (HCT-116 colon): 37.6 µM
TGI (SNB-75 CNS): 37.2 µM
TGI (SW-620 colon): 46.6 µM
TGI (UO-31 renal): 27.5 µM

N#Cc1nnc2c3c(-c4ccc(Cl)cc4)c(C#N)c(=O)[nH]c3nn2c1N
TGI (SF-539 CNS): 12.5 µM
TGI (SR leukemia): 16.7 µM
TGI (A549 NSCLC): > 59.9 µM
TGI (MALME-3M melanoma): 31.6 µM
TGI (MDA-MB-231 breast): 43.5 µM
TGI (HCT-116 colon): 15.9 µM
TGI (SW-620 colon): 32 µM
TGI (NCI-H522 lung): 6.11 µM
TGI (UO-31 renal): 20.7 µM

O=C1N2CCc3c([nH]c4ccccc34)C23CC2CCCC12S3 (stereo not drawn)
TGI (SF-539 CNS): > 50 µM
TGI (SR leukemia): > 50 µM
TGI (A549 NSCLC): > 50 µM
TGI (MALME-3M melanoma): > 50 µM
TGI (MDA-MB-231 breast): > 50 µM
TGI (HCT-116 colon): > 50 µM
TGI (SW-620 colon): > 50 µM
TGI (NCI-H522 lung): > 50 µM
TGI (UO-31 renal): > 50 µM

COC(=O)C(Cc1ccccc1)NC(=O)CCCNC(=O)OCc1ccccc1 (stereo not drawn)
TGI (SR leukemia): > 100 µM
TGI (A549 NSCLC): > 100 µM
TGI (MALME-3M melanoma): 82.7 µM
TGI (MDA-MB-231 breast): > 100 µM
TGI (HCT-116 colon): > 100 µM
TGI (SNB-75 CNS): > 100 µM
TGI (SW-620 colon): > 100 µM
TGI (NCI-H522 lung): > 100 µM
TGI (UO-31 renal): > 100 µM

COCCCN1C(=O)C2c3[nH]c4ccccc4c3C3CCC(C(C)(C)C)CC3C2C1=O (stereo not drawn)
TGI (SF-539 CNS): 70.2 µM
TGI (SR leukemia): 80.6 µM
TGI (A549 NSCLC): > 100 µM
TGI (MDA-MB-231 breast): 56.3 µM
TGI (HCT-116 colon): 38.6 µM
TGI (SNB-75 CNS): > 100 µM
TGI (SW-620 colon): > 100 µM
TGI (NCI-H522 lung): 55.4 µM
TGI (UO-31 renal): > 100 µM

CSc1nc(Br)nc2c1ncn2C1CC(Oc2ccc(C)cc2)C(COc2ccc(C)cc2)O1 (stereo not drawn)
TGI (SF-539 CNS): > 100 µM
TGI (A549 NSCLC): > 100 µM
TGI (MALME-3M melanoma): > 100 µM
TGI (MDA-MB-231 breast): > 100 µM
TGI (HCT-116 colon): > 100 µM
TGI (SNB-75 CNS): 94.6 µM
TGI (SW-620 colon): > 100 µM
TGI (NCI-H522 lung): > 100 µM

COC(=O)CCc1ccc2c(c1)CC1(C2)Cc2ccc(CCC(=O)OC)cc2C1
TGI (SF-539 CNS): > 100 µM
TGI (SR leukemia): 61.5 µM
TGI (A549 NSCLC): > 100 µM
TGI (MALME-3M melanoma): > 100 µM
TGI (MDA-MB-231 breast): > 100 µM
TGI (HCT-116 colon): > 100 µM
TGI (SNB-75 CNS): > 100 µM
TGI (NCI-H522 lung): > 100 µM
TGI (UO-31 renal): > 100 µM

O=C(CCN1CCCCC1CO)Nc1ccc2c(c1)C(=O)c1ccc(NC(=O)CCN3CCCCC3CO)cc1C2=O (stereo not drawn)
TGI (SF-539 CNS): 16.1 µM
TGI (SR leukemia): 68.9 µM
TGI (A549 NSCLC): 82.4 µM
TGI (MALME-3M melanoma): 18.8 µM
TGI (HCT-116 colon): 19.6 µM
TGI (SW-620 colon): 27 µM
TGI (NCI-H522 lung): 20.6 µM
TGI (UO-31 renal): 26.7 µM

BrCC[P+](c1ccccc1)(c1ccccc1)c1ccccc1
TGI (SF-539 CNS): 35.3 µM
TGI (SR leukemia): 27.5 µM
TGI (A549 NSCLC): > 100 µM
TGI (MDA-MB-231 breast): 34.8 µM
TGI (HCT-116 colon): 8.38 µM
TGI (SNB-75 CNS): 9.86 µM
TGI (SW-620 colon): 34.4 µM
TGI (UO-31 renal): 22.8 µM

O=C1O/C(=C\c2ccc(O)cc2)C(c2ccc(O)c(Cl)c2)=C1Br
TGI (SF-539 CNS): 29.1 µM
TGI (SR leukemia): 21 µM
TGI (MALME-3M melanoma): 29.5 µM
TGI (MDA-MB-231 breast): 59.9 µM
TGI (HCT-116 colon): 23.6 µM
TGI (SW-620 colon): 37.9 µM
TGI (NCI-H522 lung): 20.5 µM
TGI (UO-31 renal): 36.4 µM

C=CCOn1c(C=C)nc2c(C)cccc21
TGI (SR leukemia): 12.6 µM
TGI (A549 NSCLC): 14.4 µM
TGI (MALME-3M melanoma): 28 µM
TGI (MDA-MB-231 breast): 14.8 µM
TGI (HCT-116 colon): 4.97 µM
TGI (SNB-75 CNS): 14.5 µM
TGI (SW-620 colon): 11.2 µM
TGI (NCI-H522 lung): 4.87 µM
TGI (UO-31 renal): 6.03 µM

COC(=O)c1ccc(OCc2ccc3nc(-c4ccccc4)c(Cl)nc3c2)cc1
TGI (SF-539 CNS): > 100 µM
TGI (SR leukemia): > 100 µM
TGI (A549 NSCLC): > 100 µM
TGI (MDA-MB-231 breast): 60.2 µM
TGI (HCT-116 colon): > 100 µM
TGI (SNB-75 CNS): 55.4 µM
TGI (SW-620 colon): > 100 µM
TGI (NCI-H522 lung): 45.7 µM
TGI (UO-31 renal): > 100 µM

Fc1nc(F)nc(-c2c3ccccc3c3n2CCS3)n1
TGI (SF-539 CNS): > 100 µM
TGI (SR leukemia): > 100 µM
TGI (A549 NSCLC): > 100 µM
TGI (MALME-3M melanoma): > 100 µM
TGI (HCT-116 colon): > 100 µM
TGI (SNB-75 CNS): > 100 µM
TGI (SW-620 colon): > 100 µM
TGI (NCI-H522 lung): > 100 µM
TGI (UO-31 renal): > 100 µM

COc1cc2c(cc1OC)C1Cc3ccccc3CN1CCC2 (stereo not drawn)
TGI (SF-539 CNS): > 100 µM
TGI (SR leukemia): > 100 µM
TGI (A549 NSCLC): > 100 µM
TGI (MALME-3M melanoma): > 100 µM
TGI (MDA-MB-231 breast): > 100 µM
TGI (HCT-116 colon): > 100 µM
TGI (SNB-75 CNS): > 100 µM
TGI (SW-620 colon): > 100 µM
TGI (NCI-H522 lung): > 100 µM

C=C(CCC(C(=O)O)C1CCC2(C)C3=C(CCC12C)C1(C)CCC(O)C(C)(C)C1CC3)C(C)C (stereo not drawn)
TGI (SF-539 CNS): > 100 µM
TGI (SR leukemia): 27.2 µM
TGI (A549 NSCLC): > 100 µM
TGI (MDA-MB-231 breast): > 100 µM
TGI (HCT-116 colon): > 100 µM
TGI (SNB-75 CNS): > 100 µM
TGI (SW-620 colon): > 100 µM
TGI (NCI-H522 lung): 50.3 µM
TGI (UO-31 renal): > 100 µM
